Experiment [1] has as its target Serine/threonine-protein kinase PAK 3 (Homo sapiens) (UniProt O75914). In words: Inhibition of PAK3 (unknown origin) assessed as residual activity at 1000 nM by KINOMEscan analysis relative to control.
Experiment [2] deals with T1, Non-receptor tyrosine-protein kinase TNK1 (Homo sapiens) (UniProt Q13470).
T1 sequence (whole entry): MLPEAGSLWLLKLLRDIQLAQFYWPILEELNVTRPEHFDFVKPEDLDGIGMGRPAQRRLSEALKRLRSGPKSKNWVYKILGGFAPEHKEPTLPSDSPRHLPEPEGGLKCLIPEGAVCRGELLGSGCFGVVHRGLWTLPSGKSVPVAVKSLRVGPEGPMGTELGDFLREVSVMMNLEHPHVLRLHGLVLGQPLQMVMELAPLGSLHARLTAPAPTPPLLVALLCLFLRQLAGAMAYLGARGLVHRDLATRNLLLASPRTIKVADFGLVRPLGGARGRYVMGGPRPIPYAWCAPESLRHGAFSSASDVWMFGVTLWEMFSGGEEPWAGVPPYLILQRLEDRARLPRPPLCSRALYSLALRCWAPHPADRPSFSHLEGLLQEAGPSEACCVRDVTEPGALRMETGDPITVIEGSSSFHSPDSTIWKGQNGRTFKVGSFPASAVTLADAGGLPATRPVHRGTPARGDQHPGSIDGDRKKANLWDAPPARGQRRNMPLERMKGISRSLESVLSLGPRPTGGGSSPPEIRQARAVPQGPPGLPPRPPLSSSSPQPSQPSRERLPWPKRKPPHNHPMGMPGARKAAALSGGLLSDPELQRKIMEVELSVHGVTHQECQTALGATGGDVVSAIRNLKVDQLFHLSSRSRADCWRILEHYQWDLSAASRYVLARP
In words: Inhibition of TNK1 (unknown origin) assessed as residual activity at 1000 nM by KINOMEscan analysis relative to control.

The target in experiment [3] is T2, Casein kinase I isoform alpha-like (Homo sapiens) (UniProt Q8N752).
T2 sequence (whole entry): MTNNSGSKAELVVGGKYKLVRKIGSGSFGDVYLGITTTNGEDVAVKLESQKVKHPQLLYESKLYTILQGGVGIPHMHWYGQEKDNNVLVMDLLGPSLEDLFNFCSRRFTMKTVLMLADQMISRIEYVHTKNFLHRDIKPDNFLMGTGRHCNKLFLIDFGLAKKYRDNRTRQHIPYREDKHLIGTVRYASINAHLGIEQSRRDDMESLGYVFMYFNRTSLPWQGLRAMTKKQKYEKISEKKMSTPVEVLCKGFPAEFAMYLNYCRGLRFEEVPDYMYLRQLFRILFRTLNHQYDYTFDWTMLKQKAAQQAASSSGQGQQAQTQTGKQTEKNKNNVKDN
In words: Inhibition of CSNK1A1L (unknown origin) assessed as residual activity at 1000 nM by KINOMEscan analysis relative to control.

The target in experiment [4] is T3, Phosphorylase b kinase gamma catalytic chain, liver/testis isoform (Homo sapiens) (UniProt P15735).
T3 sequence (whole entry): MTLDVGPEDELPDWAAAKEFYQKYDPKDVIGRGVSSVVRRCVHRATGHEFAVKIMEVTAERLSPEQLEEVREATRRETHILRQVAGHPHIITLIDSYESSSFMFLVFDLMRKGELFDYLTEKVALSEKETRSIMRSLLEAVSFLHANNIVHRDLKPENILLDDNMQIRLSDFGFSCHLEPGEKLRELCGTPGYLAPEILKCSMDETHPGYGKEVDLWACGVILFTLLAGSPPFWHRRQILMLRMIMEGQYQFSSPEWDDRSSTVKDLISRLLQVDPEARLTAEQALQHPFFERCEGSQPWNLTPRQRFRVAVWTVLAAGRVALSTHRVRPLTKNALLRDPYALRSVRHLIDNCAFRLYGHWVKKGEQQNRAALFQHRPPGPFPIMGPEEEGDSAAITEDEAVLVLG
In words: Inhibition of PHKG2 (unknown origin) assessed as residual activity at 1000 nM by KINOMEscan analysis relative to control.

For experiment [5], the target named is Tyrosine-protein kinase CSK (Homo sapiens) (UniProt P41240). In words: Inhibition of CSK (unknown origin) assessed as residual activity at 1000 nM by KINOMEscan analysis relative to control.
Chain of Tyrosine-protein kinase CSK (Homo sapiens) (P41240 2-450 limits assumed): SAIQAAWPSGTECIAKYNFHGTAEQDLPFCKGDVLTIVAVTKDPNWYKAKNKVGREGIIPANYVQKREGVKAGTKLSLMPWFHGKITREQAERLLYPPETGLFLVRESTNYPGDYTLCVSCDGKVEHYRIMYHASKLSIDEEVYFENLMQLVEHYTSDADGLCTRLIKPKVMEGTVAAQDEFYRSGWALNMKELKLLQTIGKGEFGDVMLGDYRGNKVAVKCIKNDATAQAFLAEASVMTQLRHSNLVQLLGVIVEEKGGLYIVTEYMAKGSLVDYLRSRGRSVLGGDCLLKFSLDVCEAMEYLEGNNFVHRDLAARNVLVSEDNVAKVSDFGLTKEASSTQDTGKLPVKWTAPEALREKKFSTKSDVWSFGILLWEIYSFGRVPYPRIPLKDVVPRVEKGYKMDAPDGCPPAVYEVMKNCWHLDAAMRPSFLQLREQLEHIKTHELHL
Experiment [6] concerns Mast/stem cell growth factor receptor Kit (Homo sapiens), P10721 [D816V]. The experiment can be described thus: Inhibition of KIT D816V mutant (unknown origin) assessed as residual activity at 1000 nM by KINOMEscan analysis relative to control.
Chain of Mast/stem cell growth factor receptor Kit (Homo sapiens), P10721 [D816V] (P10721 whole entry D816V): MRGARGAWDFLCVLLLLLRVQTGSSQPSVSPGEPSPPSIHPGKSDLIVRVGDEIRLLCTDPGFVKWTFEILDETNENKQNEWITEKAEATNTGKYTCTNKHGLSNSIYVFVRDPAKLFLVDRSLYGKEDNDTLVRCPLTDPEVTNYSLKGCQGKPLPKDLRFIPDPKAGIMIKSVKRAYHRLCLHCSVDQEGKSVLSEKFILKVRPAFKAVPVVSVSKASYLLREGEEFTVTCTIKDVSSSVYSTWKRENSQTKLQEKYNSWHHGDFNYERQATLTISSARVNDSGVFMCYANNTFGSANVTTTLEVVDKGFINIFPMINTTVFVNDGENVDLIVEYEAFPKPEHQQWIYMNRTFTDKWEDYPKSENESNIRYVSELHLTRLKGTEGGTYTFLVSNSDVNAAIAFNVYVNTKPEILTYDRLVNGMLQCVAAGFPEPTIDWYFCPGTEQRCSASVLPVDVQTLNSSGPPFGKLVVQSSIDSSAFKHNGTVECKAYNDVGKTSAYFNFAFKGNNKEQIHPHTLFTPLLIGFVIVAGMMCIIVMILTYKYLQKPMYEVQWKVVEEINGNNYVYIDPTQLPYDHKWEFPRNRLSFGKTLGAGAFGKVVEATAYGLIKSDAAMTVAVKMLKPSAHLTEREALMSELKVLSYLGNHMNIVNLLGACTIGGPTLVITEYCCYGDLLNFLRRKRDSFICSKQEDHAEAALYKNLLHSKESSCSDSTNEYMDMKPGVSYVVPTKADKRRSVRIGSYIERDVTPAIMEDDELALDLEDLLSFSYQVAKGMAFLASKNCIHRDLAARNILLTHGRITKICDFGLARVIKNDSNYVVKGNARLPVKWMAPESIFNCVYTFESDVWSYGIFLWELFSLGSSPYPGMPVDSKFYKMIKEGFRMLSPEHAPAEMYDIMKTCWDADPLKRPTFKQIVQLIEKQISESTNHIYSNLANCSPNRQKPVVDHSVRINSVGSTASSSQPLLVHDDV
Experiment [7] has as its system Epidermal growth factor receptor (Homo sapiens), P00533 [UNDEFINED MUTATION]. In words: Inhibition of EGFR L747-S752del/P753S mutant (unknown origin) assessed as residual activity at 1000 nM by KINOMEscan analysis relative to control.
Experiment [8] has as its target T4, Dual serine/threonine and tyrosine protein kinase (Homo sapiens) (UniProt Q6XUX3).
T4 sequence (whole entry): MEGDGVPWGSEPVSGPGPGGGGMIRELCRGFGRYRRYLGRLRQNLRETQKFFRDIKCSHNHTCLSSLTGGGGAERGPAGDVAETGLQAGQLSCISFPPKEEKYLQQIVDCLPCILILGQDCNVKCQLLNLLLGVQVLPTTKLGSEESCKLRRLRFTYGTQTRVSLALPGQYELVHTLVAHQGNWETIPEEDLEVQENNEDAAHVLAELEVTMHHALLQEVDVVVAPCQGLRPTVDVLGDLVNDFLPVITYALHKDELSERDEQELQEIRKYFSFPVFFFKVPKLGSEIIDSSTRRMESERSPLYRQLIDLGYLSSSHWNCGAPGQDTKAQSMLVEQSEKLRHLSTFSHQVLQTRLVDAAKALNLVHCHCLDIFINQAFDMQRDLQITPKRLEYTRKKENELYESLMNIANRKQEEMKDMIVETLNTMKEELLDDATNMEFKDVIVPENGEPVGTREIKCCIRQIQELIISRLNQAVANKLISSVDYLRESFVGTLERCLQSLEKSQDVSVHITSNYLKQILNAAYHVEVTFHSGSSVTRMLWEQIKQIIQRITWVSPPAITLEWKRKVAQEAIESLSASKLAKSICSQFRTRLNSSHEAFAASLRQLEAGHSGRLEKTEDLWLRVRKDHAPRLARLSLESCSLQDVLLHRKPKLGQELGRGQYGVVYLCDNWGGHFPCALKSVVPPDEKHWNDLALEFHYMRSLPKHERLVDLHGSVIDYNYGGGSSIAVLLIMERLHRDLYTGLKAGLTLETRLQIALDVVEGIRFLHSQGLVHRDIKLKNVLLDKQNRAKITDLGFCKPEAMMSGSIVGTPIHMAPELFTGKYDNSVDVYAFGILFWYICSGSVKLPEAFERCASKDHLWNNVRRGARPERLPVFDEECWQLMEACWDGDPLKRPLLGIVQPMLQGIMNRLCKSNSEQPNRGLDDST
In words: Inhibition of RIPK5 (unknown origin) assessed as residual activity at 1000 nM by KINOMEscan analysis relative to control.

Experiment [9] concerns the target Eukaryotic translation initiation factor 2-alpha kinase 1 (Homo sapiens) (UniProt Q9BQI3). In words: Inhibition of EIF2AK1 (unknown origin) assessed as residual activity at 1000 nM by KINOMEscan analysis relative to control.

The text below walks through data of ChEMBL document CHEMBL5678818, “Discovery of potent SOS1 inhibitors that block RAS activation via disruption of the RAS-SOS1 interaction” (Proc Natl Acad Sci U S A, 2019).

Chain of Serine/threonine-protein kinase PAK 3 (Homo sapiens) (O75914 whole entry, looked up): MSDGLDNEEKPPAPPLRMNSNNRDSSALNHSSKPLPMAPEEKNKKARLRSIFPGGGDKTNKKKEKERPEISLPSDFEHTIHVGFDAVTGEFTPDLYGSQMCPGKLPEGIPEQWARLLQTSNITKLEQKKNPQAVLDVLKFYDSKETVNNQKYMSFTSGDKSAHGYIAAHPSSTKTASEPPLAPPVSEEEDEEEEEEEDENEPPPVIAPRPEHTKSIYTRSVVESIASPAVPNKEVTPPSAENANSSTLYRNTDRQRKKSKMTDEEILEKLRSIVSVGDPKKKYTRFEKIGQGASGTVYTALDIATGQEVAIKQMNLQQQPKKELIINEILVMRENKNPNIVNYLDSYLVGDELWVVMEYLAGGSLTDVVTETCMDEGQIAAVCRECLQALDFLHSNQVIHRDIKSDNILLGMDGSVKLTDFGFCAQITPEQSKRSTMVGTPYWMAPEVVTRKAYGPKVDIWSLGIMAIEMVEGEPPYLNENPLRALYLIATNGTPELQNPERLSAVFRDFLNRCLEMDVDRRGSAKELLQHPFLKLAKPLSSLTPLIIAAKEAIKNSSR
Chain of Epidermal growth factor receptor (Homo sapiens), P00533 [UNDEFINED MUTATION] (P00533 whole entry, looked up, stated change not applied): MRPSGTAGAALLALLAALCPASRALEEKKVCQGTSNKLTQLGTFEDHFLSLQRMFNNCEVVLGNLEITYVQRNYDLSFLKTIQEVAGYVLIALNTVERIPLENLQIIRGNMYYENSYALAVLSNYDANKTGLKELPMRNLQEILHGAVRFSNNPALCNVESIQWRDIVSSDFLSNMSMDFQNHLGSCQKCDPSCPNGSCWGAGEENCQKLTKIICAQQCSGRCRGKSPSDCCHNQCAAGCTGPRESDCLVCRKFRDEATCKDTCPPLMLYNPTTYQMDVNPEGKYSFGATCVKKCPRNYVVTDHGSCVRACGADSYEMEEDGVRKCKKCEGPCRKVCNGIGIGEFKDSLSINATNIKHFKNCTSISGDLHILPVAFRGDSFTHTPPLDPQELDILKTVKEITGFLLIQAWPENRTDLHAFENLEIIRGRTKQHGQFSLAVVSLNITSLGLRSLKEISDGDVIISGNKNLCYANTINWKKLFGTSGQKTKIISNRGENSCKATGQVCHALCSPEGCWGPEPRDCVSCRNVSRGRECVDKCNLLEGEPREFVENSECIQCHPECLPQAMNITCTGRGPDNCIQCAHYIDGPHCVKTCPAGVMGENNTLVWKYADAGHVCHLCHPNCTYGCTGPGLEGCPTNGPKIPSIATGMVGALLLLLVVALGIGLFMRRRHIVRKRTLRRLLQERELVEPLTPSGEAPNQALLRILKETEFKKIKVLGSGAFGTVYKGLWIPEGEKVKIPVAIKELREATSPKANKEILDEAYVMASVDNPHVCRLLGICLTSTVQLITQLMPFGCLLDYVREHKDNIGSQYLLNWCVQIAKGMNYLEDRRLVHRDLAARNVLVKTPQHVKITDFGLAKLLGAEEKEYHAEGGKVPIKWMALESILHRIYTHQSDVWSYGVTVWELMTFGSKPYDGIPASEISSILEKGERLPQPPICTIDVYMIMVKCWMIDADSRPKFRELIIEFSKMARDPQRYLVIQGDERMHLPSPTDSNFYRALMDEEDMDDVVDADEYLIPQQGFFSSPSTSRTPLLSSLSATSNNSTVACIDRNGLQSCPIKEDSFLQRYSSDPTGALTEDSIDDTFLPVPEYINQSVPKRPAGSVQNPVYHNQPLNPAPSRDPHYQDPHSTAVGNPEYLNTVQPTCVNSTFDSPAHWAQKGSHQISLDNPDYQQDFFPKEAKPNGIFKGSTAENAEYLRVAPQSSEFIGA
Chain of Eukaryotic translation initiation factor 2-alpha kinase 1 (Homo sapiens) (Q9BQI3 whole entry): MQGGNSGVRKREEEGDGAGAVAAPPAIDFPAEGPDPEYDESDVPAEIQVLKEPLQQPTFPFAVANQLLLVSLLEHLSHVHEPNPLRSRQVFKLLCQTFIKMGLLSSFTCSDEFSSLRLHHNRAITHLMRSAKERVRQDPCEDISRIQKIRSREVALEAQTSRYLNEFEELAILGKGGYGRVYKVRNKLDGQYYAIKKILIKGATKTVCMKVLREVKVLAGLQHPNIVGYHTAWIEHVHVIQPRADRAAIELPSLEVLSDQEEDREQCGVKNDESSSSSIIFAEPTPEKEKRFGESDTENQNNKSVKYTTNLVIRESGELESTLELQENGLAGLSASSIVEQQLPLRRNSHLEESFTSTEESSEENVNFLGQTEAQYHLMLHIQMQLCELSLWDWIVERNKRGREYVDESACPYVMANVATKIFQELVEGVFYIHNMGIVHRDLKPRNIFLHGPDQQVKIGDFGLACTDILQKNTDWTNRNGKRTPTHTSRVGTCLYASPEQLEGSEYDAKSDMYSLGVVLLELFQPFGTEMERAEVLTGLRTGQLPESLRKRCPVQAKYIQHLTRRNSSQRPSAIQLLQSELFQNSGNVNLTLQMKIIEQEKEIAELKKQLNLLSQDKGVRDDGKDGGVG

Turning to `COc1cc2nc(C)nc(N[C@H](C)c3cccc(-c4cn[nH]c4)c3)c2cc1OC`, the Activity was determined as 34% in [1]; 100% in [2]; 65% in experiment [3]; 59% in experiment [4]; 93% in experiment [5]; 55% in experiment [6]. Also, the Activity turned out to be 93% in experiment [7], 77% in [8] and 100% in experiment [9].

Turning to `COc1cc2ncnc(N[C@H](C)c3cccc4ccccc34)c2cc1OC`, the Activity in experiment [1] came out at 58%; in experiment [2] it was 100%; in experiment [3] it was 100%; in [4] it was 100%; in [5] it was 87%; in experiment [6], 96%. The Activity in experiment [7] was 9.3%; in experiment [8], 86%; in experiment [9], 88%.
